Data set [1] deals with Mus musculus. Briefly: Antiobesity activity in DIO C57BL/6J mouse assessed as reduction in body weight at 1 mg/kg, sc […] for 2 weeks dosed by infusion of osmotic pumps. Type of data set: functional. The conditions noted are these: 336 h.
Data set [2] relates to Mus musculus. Briefly: Anorectic activity in C57BL/6J mouse assessed as inhibition of food intake at 0.3 mg/kg/day, sc dosed as […] and measured after 24 hrs. In kind it is functional.
The nature of data set [3]: Cmax in C57BL/6J mouse at 1 mg/kg, sc measured during 5 mins to 24 hrs by LC/MS/MS method. In kind it is ADME, organism-based. Further details: dose 1 mg/kg, route subcutaneous. The conditions noted are these: in vivo.
Data set [4] deals with T1, Neuropeptide Y receptor type 2 (Homo sapiens, UniProt P49146).
T1 sequence (P49146 whole entry): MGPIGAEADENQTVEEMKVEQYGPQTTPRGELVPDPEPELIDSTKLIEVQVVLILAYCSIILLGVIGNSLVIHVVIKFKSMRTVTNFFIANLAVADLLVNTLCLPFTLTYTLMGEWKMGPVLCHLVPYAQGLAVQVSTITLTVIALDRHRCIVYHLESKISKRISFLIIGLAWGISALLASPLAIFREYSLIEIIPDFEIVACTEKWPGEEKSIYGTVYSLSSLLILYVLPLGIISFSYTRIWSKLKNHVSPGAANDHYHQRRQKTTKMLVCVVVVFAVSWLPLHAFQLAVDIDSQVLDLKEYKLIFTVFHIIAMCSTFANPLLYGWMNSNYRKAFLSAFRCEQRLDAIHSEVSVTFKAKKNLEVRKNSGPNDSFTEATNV
Briefly: Displacement of [125I]-PYY from human neuropeptide Y2 receptor expressed in CHO cell membranes incubated for 60 mins by TopCount based method.

Data set [5] is described as follows: Volume of distribution at steady state in C57BL/6J mouse at 1 mg/kg, iv measured during 5 mins to 24 hrs by LC/MS/MS method. Type of data set: ADME, organism-based. The conditions noted are these: in vivo, read-out: Vdss.
Data set [6] concerns the target T1, Neuropeptide Y receptor type 2. Briefly: Agonist activity at human neuropeptide Y2 receptor expressed in CHO cell membranes assessed as stimulation of [35S]GTPgammaS binding incubated for 120 mins by liquid scintillation counting method. In kind it is functional. In general terms: Binding of GTPγS marks nucleotide exchange on a G protein.
The nature of data set [7]: Bioavailability in C57BL/6J mouse at 1 mg/kg, sc measured during 5 mins to 24 hrs by LC/MS/MS method. The conditions noted are these: in vivo. Type of data set: ADME, organism-based.
Data set [8] can be described thus: AUC (0 to 24 hrs) in C57BL/6J mouse at 1 mg/kg, iv measured during 5 mins to 24 hrs by LC/MS/MS method. Type of data set: ADME, organism-based. Further details: dose 1 mg/kg, time < 24 hr, route intravenous. Particulars: in vivo.
Data set [9] is described as follows: Total clearance in C57BL/6J mouse at 1 mg/kg, iv measured during 5 mins to 24 hrs by LC/MS/MS method. The conditions noted are these: in vivo. Type of data set: ADME, organism-based.
Data set [10] relates to Mus musculus. Briefly: Anorectic activity in C57BL/6J mouse assessed as inhibition of food intake at 0.03 mg/kg/day, sc for 3 days dosed as continuous administration by infusion using osmotic pump. Type of data set: functional. Particulars: 72 h.
Data set [11] in a line: Tmax in C57BL/6J mouse at 1 mg/kg, sc measured during 5 mins to 24 hrs by LC/MS/MS method. Type of data set: ADME, organism-based. Particulars: in vivo.
The test system of data set [12] is Mus musculus. Briefly: Anorectic activity in C57BL/6J mouse assessed as inhibition of food intake at 0.3 mg/kg/day, sc dosed as […] and measured after 12 hrs. Type of data set: functional.
Data set [13] is described as follows: AUC (0 to 24 hrs) in C57BL/6J mouse at 1 mg/kg, sc measured during 5 mins to 24 hrs by LC/MS/MS method. In kind it is ADME, organism-based. Further details: time < 24 hr, dose 1 mg/kg, route subcutaneous. Particulars: in vivo.
For data set [14], the system named is Mus musculus. Briefly: Antiobesity activity in DIO C57BL/6J mouse assessed as reduction in body weight at 0.01 mg/kg, sc for 2 weeks dosed as continuous administration by infusion of osmotic pumps. Type of data set: functional. The conditions noted are these: 336 h.
The nature of data set [15]: MRT in C57BL/6J mouse at 1 mg/kg, sc measured during 5 mins to 24 hrs by LC/MS/MS method. Type of data set: ADME, organism-based. The conditions noted are these: in vivo.
Data set [16] in a line: MRT in C57BL/6J mouse at 1 mg/kg, iv measured during 5 mins to 24 hrs by LC/MS/MS method. In kind it is ADME, organism-based. The conditions noted are these: in vivo.
The test system of data set [17] is Mus musculus. Briefly: Drug level in C57BL/6J mouse at 1 mg/kg, iv measured during 5 mins to 24 hrs by LC/MS/MS method. In kind it is ADME, organism-based. Particulars: in vivo, read-out: Drug uptake.
The subject of data set [18] is Mus musculus. Briefly: Anorectic activity in C57BL/6J mouse assessed as inhibition of food intake at 0.1 mg/kg/day, sc for 3 days dosed as continuous administration by infusion using osmotic pump. In kind it is functional. The conditions noted are these: 72 h.

What is called inhibition in vivo is how much of the control response was suppressed. The term Cmax denotes the peak of the concentration-time curve. In general, IC50 refers to the concentration that inhibits the measured activity by half. Read a high IC50 as weaker potency. The term EC50 denotes the concentration that produces a half-maximal response. Broadly, the AUC(0-t) is the area under the concentration-time curve up to a stated or last time point. Usually clearance stands for a measure of how efficiently the substance is removed, as volume per time. Low values mean inefficient removal, high ones efficient removal. As usually defined, the Tmax is the time at which the peak concentration occurs. As usually defined, the MRT is a mean duration of stay, worked out from the concentration-time curve.

Turning to `CC[C@](C)(NC(=O)[C@H](CC1CCCCC1)NC(=O)[C@H](Cc1ccncc1)NC(=O)[C@](C)(CC)NC(=O)[C@H]1C[C@H](O)CN1C(=O)[C@H](CO)NC(C)=O)C(=O)N[C@@H](CC(N)=O)C(=O)N[C@@H](CCCCN)C(=O)NC(C)(C)C(=O)N[C@H](C(=O)N[C@@H](CCCNC(=N)N)C(=O)N[C@@H](CCC(N)=O)C(=O)N[C@@H](CCCNC(=N)N)C(=O)N[C@@H](CC1CCCCC1)C(N)=O)[C@@H](C)O`, in the data set with Mus musculus [1], the inhibition in vivo at 1 mg/kg amounted to 1.7%. Also, the inhibition in vivo at 0.3 mg/kg/day came out at 23% in the data set on Mus musculus [2] and 38% with Mus musculus [12]. The compound further showed a Cmax in data set [3] of 666 nM. For the same compound, in data set [4], the IC50 amounted to 0.46 nM. Further, in data set [5], the Vd was 0.41 L/kg. In data set [6], the EC50 was determined as 0.17 nM. Besides, the bioavailability in data set [7] is 108%. The figures for the AUC(0-t) at 24 h in data set [8] and in data set [13] were 0.435 µM·h and 0.469 µM·h, respectively. The compound also had a clearance in data set [9] of 19.5 mL/min/kg. Also, the inhibition in vivo at 0.03 mg/kg/day in the data set on Mus musculus [10] was 56%. Further, the Tmax in data set [11] was 15 min. Moreover, the inhibition in vivo at 0.01 mg/kg with Mus musculus [14] is 5%. For the same compound, the MRT worked out at 31.2 min in data set [15] and 21 min in [16]. Further, in the data set with Mus musculus [17], the concentration was 1660 nM.
For `CC[C@](C)(NC(=O)[C@H]1CCCN1C(=O)[C@H](CO)NC(C)=O)C(=O)N[C@@H](Cc1ccncc1)C(=O)N[C@@H](CC1CCCCC1)C(=O)NC(C)(C)C(=O)N[C@@H](CC(N)=O)C(=O)N[C@@H](CCCCN)C(=O)NC(C)(C)C(=O)N[C@H](C(=O)N[C@@H](CCCNC(=N)N)C(=O)N[C@@H](CCC(N)=O)C(=O)N[C@@H](CCCNC(=N)N)C(=O)N[C@@H](CC1CCCCC1)C(N)=O)[C@@H](C)O`, the inhibition in vivo at 0.3 mg/kg/day in the data set on Mus musculus [2] came to 7%; in the data set on Mus musculus [12], 22%. The same compound registered a Cmax in data set [3] of 227 nM. The same compound yielded an IC50 in [4] of 1.8 nM. The Vd in data set [5] came out at 0.5 L/kg. In addition, the EC50 in data set [6] came to 0.28 nM. Also, in data set [7], the bioavailability is 53.7%. Also, the AUC(0-t) at 24 h came out at 0.232 µM·h in data set [8] and 0.125 µM·h in data set [13]. The compound further gave a clearance in [9] of 41 mL/min/kg. Besides, in the data set on Mus musculus [10], the inhibition in vivo at 0.03 mg/kg/day was found to be 46%. Further, the Tmax in [11] turned out to be 15 min. The MRT in [15] turned out to be 22.2 min; in data set [16], 12 min. In the data set with Mus musculus [18], the inhibition in vivo at 0.1 mg/kg/day was 68%. For the same compound, the concentration with Mus musculus [17] amounted to 1270 nM.

The values above are taken from ChEMBL document CHEMBL4177573 (Bioorg Med Chem, 2017).
